# In patent US9273067B2, “Pyrazolopyrimidine macrocycles as inhibitors of human immunodeficiency virus replication” (BRISTOL-MYERS SQUIBB COMPANY, priority 2014, dated 2016):
# Test system: NL-RLuc virus (recombinant HIV NL4-3 with Renilla Luciferase) in MT-2 cells
# Assay: Inhibition of HIV replication (NL-RLuc virus in MT-2 cells, luciferase readout)
# Type: cell-based, human immunodeficiency virus (HIV)
# Conditions: MT2, 120 h, NL-RLuc virus infecting MT-2 cells, 5 days of incubation, 10% FBS, luciferase quantitation; at least 2 experiments
# Source text: Inhibition of HIV Replication:
# A recombinant NL-RLuc proviral clone was constructed in which a section of the nef gene from NL4-3 was replaced with the Renilla Luciferase gene. This virus is fully infectious and can undergo multiple cycles of replication in cell culture. In addition, the luciferous reporter provides a simple and easy method for quantitating the extent of virus growth and consequently, the antiviral activity of test compounds. The plasmid pNLRLuc contains the proviral NL-Rluc DNA cloned into pUC 18 at the PvuII site. The NL-RLuc virus was prepared by transfection of 293T cells with the plasmid pNLRLuc. Transfections were performed using the LipofectAMINE PLUS kit from Invitrogen (Carlsbad, Calif.) according to the manufacturer and the virus generated was titered in MT-2 cells. For susceptibility analyses, the titrated virus was used to infect MT-2 cells in the presence of compound, and after 5 days of incubation, cells were processed and quantitated for virus growth by the amount of expressed luciferase. Assay media was RPMI 1640 supplemented with 10% heat inactivated fetal bovine serum (FBS), 100 units/ml penicillin G/100 units/ml streptomycin, 10 mM HEPES buffer pH 7.55 and 2 mM L-glutamine. The results from at least 2 experiments were used to calculate the EC50 values. Luciferase was quantitated using the Dual Luciferase kit from Promega (Madison, Wis.). Susceptibility of viruses to compounds was determined by incubation in the presence of serial dilutions of the compound. The 50% effective concentration (EC50) was calculated by using the exponential form of the median effect equation where (Fa)=1/[1+(ED50/drug conc.)^m] (Johnson V A, Byington R T. Infectivity Assay. In Techniques in HIV Research. ed. Aldovini A, Walker B D. 71-76. New York: Stockton Press. 1990).
row,Molecule,EC50
1,"Cc1ccc2c(c1)CCCCOC1(C)CCN(CC1)c1c([C@H](OC(C)(C)C)C(=O)O)c(C)nc3cc(nn13)COC2 [Example 65, (2S)-2-(tert-Butoxy)-2-{4,16,24-trimethyl-11,23-dioxa-1,5,7,8-tetraazapentacyclo[22.2.2.1^6,^9.0^2,^7.0^13,^18]nonacosa-2,4,6(29),8,13(18),14,16-heptaen-3-yl}acetic acid]",2 nM
2,"Cc1ccc2c(c1)O[C@@H](C)CCCCOC1(C)CCN(CC1)c1c([C@H](OC(C)(C)C)C(=O)O)c(C)nc3cc(nn13)CO[C@H]2C (single isomer, unassigned) [Example 55]",7 nM
3,"Cc1ccc2c(c1)O[C@@H](C)CCCCOC1(C)CCN(CC1)c1c([C@H](OC(C)(C)C)C(=O)O)c(C)nc3cc(nn13)CO[C@@H]2C (single isomer, unassigned) [Example 56]",8 nM
4,"Cc1nc2cc3nn2c(c1[C@H](OC(C)(C)C)C(=O)O)N1CCC(C)(CC1)OCCCC[C@H](C)Oc1cc(F)ccc1CCC3 [Example 39, (2S)-2-(tert-Butoxy)-2-[(20S)-16-fluoro-4,20,26-trimethyl-19,25-dioxa-1,5,7,8-tetraazapentacyclo[24.2.2.1^6,^9.0^2,^7.0^13,^18]hentriaconta-2,4,6(31),8,13(18),14,16-heptaen-3-yl]acetic acid]",5 nM
5,"Cc1nc2cc3nn2c(c1[C@H](OC(C)(C)C)C(=O)O)N1CCC(C)(CC1)OCC=CCOCc1cn(nn1)C3 [Example 1, (2S)-2-(tert-Butoxy)-2-[4,22-dimethyl-16,21-dioxa-1,5,7,8,11,12,13-heptaazapentacyclo[20.2.2.1^6,^9.1^11,^14.0^2,^7]octacosa-2,4,6(28),8,12,14(27),18-heptaen-3-yl]acetic acid]",2490 nM
6,"Cc1nc2cc3nn2c(c1[C@H](OC(C)(C)C)C(=O)O)N1CCC(C)(CC1)OCCCC[C@H](C)Oc1ccc(F)cc1COC3 [Example 28, (2S)-2-(tert-Butoxy)-2-[(20S)-15-fluoro-4,20,26-trimethyl-11,19,25-trioxa-1,5,7,8-tetraazapentacyclo[24.2.2.1^6,^9.0^2,^7.0^13,^18]hentriaconta-2,4,6(31),8,13,15,17-heptaen-3-yl]acetic acid]",5 nM
7,"Cc1nc2cc3nn2c(c1[C@H](OC(C)(C)C)C(=O)O)N1CCC(C)(CC1)OCCCC[C@H](C)Oc1c(ccc2ccccc12)COC3 [Example 61, (2S)-2-(tert-butoxy)-2-[(24S)-4,24,30-trimethyl-11,23,29-trioxa-1,5,7,8-tetraazahexacyclo[28.2.2.1^6,^9.0^2,^7.0^13,^22.0^16,^21]pentatriaconta-2,4,6(35),8,13(22),14,16(21),17,19-nonaen-3-yl]acetic acid]",5 nM
8,"Cc1nc2cc3nn2c(c1[C@H](OC(C)(C)C)C(=O)O)N1CCC(C)(CC1)OCCCC[C@H](C)Oc1cc(F)cc(F)c1COC3 [Example 32, (2S)-2-(tert-Butoxy)-2-[(20S)-14,16-difluoro-4,20,26-trimethyl-11,19,25-trioxa-1,5,7,8-tetraazapentacyclo[24.2.2.1^6,^9.0^2,^7.0^13,^18]hentriaconta-2,4,6(31),8,13,15,17-heptaen-3-yl]acetic acid]",3 nM
9,"Cc1nc2cc3nn2c(c1[C@H](OC(C)(C)C)C(=O)O)N1CCC(C)(CC1)OCCCCC(C(F)(F)F)Oc1cc(F)ccc1COC3 (stereo partly drawn) [Example 54, (2S)-2-(tert-butoxy)-2-[16-fluoro-4,26-dimethyl-20-(trifluoromethyl)-11,19,25-trioxa-1,5,7,8-tetraazapentacyclo[24.2.2.1^6,^9.0^2,^7.0^13,^18]hentriaconta-2,4,6(31),8,13,15,17-heptaen-3-yl]acetic acid]",7 nM
10,"Cc1nc2cc3nn2c(c1[C@H](OC(C)(C)C)C(=O)O)N1CCC(C)(CC1)OCCCc1ccccc1COC3 [Example 23, (2S)-2-(tert-Butoxy)-2-{4,23-dimethyl-11,22-dioxa-1,5,7,8-tetraazapentacyclo[21.2.2.1^6,^9.0^2,^7.0^13,^18]octacosa-2,4,6(28),8,13(18),14,16-heptaen-3-yl}acetic acid]",11 nM
11,"Cc1nc2cc3nn2c(c1[C@H](OC(C)(C)C)C(=O)O)N1CCC(C)(CC1)OCCCCOCc1cn(nn1)C3 [Example 2, (2S)-2-(tert-Butoxy)-2-{4,22-dimethyl-16,21-dioxa-1,5,7,8,11,12,13-heptaazapentacyclo[20.2.2.1^6,^9.1^11,^14.0^2,^7]octacosa-2,4,6(28),8,12,14(27)-hexaen-3-yl}acetic acid]",2690 nM
12,"Cc1nc2cc3nn2c(c1[C@H](OC(C)(C)C)C(=O)O)N1CCC(C)(CC1)OCCCc1cc(F)ccc1COC3 [Example 67, (2S)-2-(tert-Butoxy)-2-{16-fluoro-4,23-dimethyl-11,22-dioxa-1,5,7,8tetraazapentacyclo[21.2.2.1^6,^9.0^2,^7.0^13,^18]octacosa-2,4,6(28),8,13(18),14,16-heptaen-3-yl}acetic acid]",5 nM
13,"Cc1nc2cc3nn2c(c1[C@H](OC(C)(C)C)C(=O)O)N1CCC(C)(CC1)OCC=Cc1cc(C(F)(F)F)ccc1COC3 [Example 26, (2S)-2-(tert-Butoxy)-2-[4,23-dimethyl-16-(trifluoromethyl)-11,22-dioxa-1,5,7,8-tetraazapentacyclo[21.2.2.1^6,^9.0^2,^7.0^13,^18]octacosa-2,4,6(28),8,13(18),14,16,19-octaen-3-yl]acetic acid]",32 nM

# Same assay, conditions: NL-RLuc virus infecting MT-2 cells, 5 days of incubation, 10% FBS, luciferase quantitation; at least 2 experiments; read-out: EC50
row,Molecule,EC50
1,Cc1nc2cc3nn2c(c1[C@H](OC(C)(C)C)C(=O)O)N1CCC(C)(CC1)OCC/C=C\c1ccccc1OC3 [Example 20],105 nM
2,"Cc1nc2cc3nn2c(c1[C@H](OC(C)(C)C)C(=O)O)N1CCC(C)(CC1)OC=CCCOC(C)(C)c1cn(nn1)C3 [Example 3, (2S)-2-(tert-Butoxy)-2-[4,15,15,22-tetramethyl-16,21-dioxa-1,5,7,8,11,12,13-heptaazapentacyclo[20.2.2.1^6,^9.1^11,^14.0^2,^7]octacosa-2,4,6(28),8,12,14(27),19-heptaen-3-yl]acetic acid]",253 nM
3,"Cc1nc2cc3nn2c(c1[C@H](OC(C)(C)C)C(=O)O)N1CCC(C)(CC1)OC=CCCOC1(CCCCC1)c1cn(nn1)C3 [Example 7, (2S)-2-(tert-Butoxy)-2-[4′,22′-dimethyl-16′,21′-dioxa-1′,5′,7′,8′ 11′,12′,13′-heptaazaspiro[cyclohexane-1,15′-pentacyclo[20.2.2.1^6,^9.1^11,^14.0^2,^7]octacosane]-2′,4′,6′(28′),8′,12′,14′(27′),19′-heptaen-3′-yl]acetic acid]",134 nM
4,"(2S)-2-(tert-Butoxy)-2-[4,22-dimethyl-15-(propan-2-yl)-16,21-dioxa-1,5,7,8,11,12,13-heptaazapentacyclo[20.2.2.1^6,^9.1^11,^14.0^2,^7]octacosa-2,4,6(28),8,12,14(27),19-heptaen-3-yl]acetic acid [Example 9]",93 nM

# Same assay, conditions: {}
row,Molecule,EC50
1,"Cc1ccc(C2CCCCOC3(C)CCN(CC3)c3c([C@H](OC(C)(C)C)C(=O)O)c(C)nc4cc(nn34)CO2)cc1 (stereo partly drawn) [Example 46, (2S)-2-(tert-butoxy)-2-[4,18-dimethyl-12-(4-methylphenyl)-11,17-dioxa-1,5,7,8-tetraazatetracyclo[16.2.2.1^6,^9.0^2,^7]tricosa-2,4,6(23),8-tetraen-3-yl]acetic acid]",735 nM
2,"CCCC1CCCCOC2(C)CCN(CC2)c2c([C@H](OC(C)(C)C)C(=O)O)c(C)nc3cc(nn23)COCc2cc(F)ccc2O1 (stereo partly drawn) [Example 49, (2S)-2-(tert-butoxy)-2-{15-fluoro-4,26-dimethyl-20-propyl-11,19,25-trioxa-1,5,7,8-tetraazapentacyclo[24.2.2.1^6,^9.0^2,^7.0^13,^18]hentriaconta-2,4,6(31),8,13(18),14,16-heptaen-3-yl}acetic acid]",5 nM
3,"Cc1nc2cc3nn2c(c1[C@H](OC(C)(C)C)C(=O)O)N1CCC(C)(CC1)OCCCCOC(CC(C)C)c1cn(nn1)C3 (stereo partly drawn) [Example 13, (2S)-2-(tert-Butoxy)-2-[4,22-dimethyl-15-(2-methylpropyl)-16,21-dioxa-1,5,7,8,11,12,13-heptaazapentacyclo[20.2.2.1^6,^9.1^11,^14.0^2,^7]octacosa-2,4,6(28),8,12,14(27)-hexaen-3-yl]acetic acid]",124 nM
4,"CCCC1CCCCOC2(C)CCN(CC2)c2c([C@H](OC(C)(C)C)C(=O)O)c(C)nc3cc(nn23)COCc2ccc(C)cc2O1 (stereo partly drawn) [Example 44, (2S)-2-(tert-Butoxy)-2-{4,16,26-trimethyl-20-propyl-11,19,25-trioxa-1,5,7,8-tetraazapentacyclo[24.2.2.1^6,^9.0^2,^7.0^13,^18]hentriaconta-2,4,6(31),8,13(18),14,16-heptaen-3-yl}acetic acid]",5 nM
